# According to patent US20150290232A1, “DRUG COMPOSITION FOR TREATING TUMORS AND APPLICATION THEREOF” (priority 2012, published 2015):
# Where two headings read alike, the source gives them in different places.
# What was measured:
# [1] = test system: A549 transplanted tumor (human non-small cell lung cancer cell line); test: Example 6: TTD and Acla A combined on A549 transplanted tumor in nude mice; type: in vivo, BALB/c-nu nude mice; conditions: A549, Jef 50 mg/kg/time intragastric, 3 times a day, 10 days, Day 29
# Procedure: (§1) Under sterile conditions, the above tumor cells were collected in the logarithmic growth phase. A549 was injected by subcutaneous injection in an amount of 1×10 7/0.2 mL/nude mice (cell viability>90%) into the right subaxillary of the nude mice, whereas HepG2 was injected by subcutaneous injection in an amount of 1×10 7/0 2 mL/nude mice (cell viability>90%) into the left subaxillary of the nude mice, thus establishing transplated tumor models of lung cancer and liver cancer respectively in nude mice. The mice were administered from the second day after the inoculation. […] Each mouse was intragastrically administered in 0.4 ml each time and 3 times a day, at 8:00, 14:00 and 20:00. The administrations were successive for 10 days. The day before administration was deemed as Day 0 and the body weight and tumor size of the mice were determined every 5 days to produce a dynamic plot on body weight and tumor growth. On Day 29, the mice were sacrificed and the tumors were taken out and weighed. The tumor inhibition rate (%) was calculated after the effect of the medicament based on a tumor inhibition rate of the control group being zero.
# (§2) The values determined were presented as mean±standard error (Mean±SD). The experimental data for each group was analyzed with One-way ANOVA method in the SPSS 18.0 statistical software, and p<0.05 means that the differences are statistically significant.
# [2] = test system: A549 transplanted tumor (human non-small cell lung cancer cell line); test: Example 5: Acla A on A549 transplanted tumor in nude mice; type: in vivo, BALB/c-nu nude mice; conditions: A549, Jef 50 mg/kg/time intragastric, 2 times a day, 14 days, Day 20
# Procedure: Under sterile conditions, the above tumor cells were collected in the logarithmic growth phase. A549 was injected by subcutaneous injection in an amount of 6×10 6/0.2 mL/nude mice (cell viability>90%) into the right subaxillary of the nude mice, thus establishing transplated tumor models of lung cancer in nude mice. The mice were administered from the second day after the inoculation. The experimental group was intragastrically administered at the experimentally designed amount, the negative control group was intragastrically administered with sterile water, and the positive control group is intragastrically administered with Jef. Each mouse was intragastrically administered in 0.4 ml each time and 2 times a day, at 8:00, and 14:00. The administrations were successive for 14 days. The day before administration was deemed as Day 0 and the body weight and tumor size of the mice were determined every 5 days to produce a dynamic plot on body weight and tumor growth. On Day 20, the mice were sacrificed and the tumors were taken out and weighed. The tumor inhibition rate (%) was calculated after the effect of the medicament based on a tumor inhibition rate of the control group being zero.
# as §2
# [3] = test system: Hep G2 transplanted tumor (human hepatoma carcinoma cell); test: Example 6: TTD and Acla A combined on Hep G2 transplanted tumor in nude mice; type: in vivo, BALB/c-nu nude mice; conditions: Hep G2, Jef 50 mg/kg/time intragastric, 3 times a day, 10 days, Day 29
# Procedure: as §1, §2
# [4] = test system: human leukemia Jurkat cells; conditions: cited from earlier work
# [5] = test system: peripheral blood leucocyte of a normal human being; conditions: berbamine 0.5 μg/mL to 10 μg/mL; cited from earlier work
Structure (SMILES),Mass of tumor ([1]; Mean ± SD) [g],tumor inhibition rate ([1]; control = 0) [%],Mass of tumor ([2]; Mean ± SD) [g],tumor inhibition rate ([2]; control = 0) [%],Mass of tumor ([3]; Mean ± SD) [g],"tumor inhibition rate ([3]; control = 0, * P < 0.05)",cell viability ([4]; berbamine 0.5 μg/mL) [%],cell viability ([4]; berbamine 10 μg/mL) [%],cytotoxic effect (in words) [5]
"COc1cc2ncnc(Nc3ccc(F)c(Cl)c3)c2cc1OCCCN1CCOCC1 [Jef, Jefitinib]",1.52 ± 1.00,−34.11,0.38 ± 0.37,−14.34,0.31 ± 0.10,54.08* %,–,–,–
"COc1cc2c3cc1Oc1c(OC)c(OC)cc4c1[C@@H](Cc1ccc(O)c(c1)Oc1ccc(cc1)C[C@@H]3N(C)CC2)N(C)CC4 [berbamine, 6,6′,7-trimethoxy-2,2′-dimethylberbaman-12-ol]",–,–,–,–,–,–,93.69,14.85,no evident cytotoxic effect
